The source of these data is paper PMC5933747 (PLoS ONE, 2018).

Data set [1] deals with T1, human NaV1.7 (Homo sapiens, UniProt Q15858). The data set can be described thus: PatchXpress (PX) automated electrophysiology, human NaV1.7 in HEK293 cells. The conditions noted are these: PX platform, voltage protocol with 20% of channels inactivated, at least ten cells, two to three data points per concentration. The format is cell-based.
Another data set deals with human NaV1.5 (Homo sapiens, UniProt Q14524). The data set can be described thus: PatchXpress (PX) automated electrophysiology, human NaV1.5. The format is cell-based. Particulars: human; PX platform; at least ten cells, two to three data points per concentration.
The next data set deals with human NaV1.4 (Homo sapiens, UniProt P35499). The data set is described as follows: PatchXpress (PX) automated electrophysiology, human NaV1.4. The format is cell-based. An outline of the steps:
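Human NaV channels stably expressed in HEK293 or CHO cells, recorded by whole-cell patch clamp on PatchXpress using voltage protocols described elsewhere.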

In data set [2] the test system is TTX-S sodium channels in rat DRG neurons. The conditions noted are these: cited from earlier work.
For data set [3], the target named is T1, human NaV1.7. The data set can be described thus: Manual whole cell patch clamp, human NaV1.7. The data set is classed as cell-based. For orientation: Patch clamp records ionic current or voltage across a cell membrane.
In data set [4] the test system is TTX-R sodium channels in rat DRG neurons. The conditions noted are these: cited from earlier work.
The subject of data set [5] is mechanically-induced C-fiber action potential firing. Particulars: mouse skin-nerve preparation; cited from earlier work.

“And” between values parts separate entries of the source, which are not always exact repeats. Identical values can stand only once.

T1 sequence (Q15858 whole entry): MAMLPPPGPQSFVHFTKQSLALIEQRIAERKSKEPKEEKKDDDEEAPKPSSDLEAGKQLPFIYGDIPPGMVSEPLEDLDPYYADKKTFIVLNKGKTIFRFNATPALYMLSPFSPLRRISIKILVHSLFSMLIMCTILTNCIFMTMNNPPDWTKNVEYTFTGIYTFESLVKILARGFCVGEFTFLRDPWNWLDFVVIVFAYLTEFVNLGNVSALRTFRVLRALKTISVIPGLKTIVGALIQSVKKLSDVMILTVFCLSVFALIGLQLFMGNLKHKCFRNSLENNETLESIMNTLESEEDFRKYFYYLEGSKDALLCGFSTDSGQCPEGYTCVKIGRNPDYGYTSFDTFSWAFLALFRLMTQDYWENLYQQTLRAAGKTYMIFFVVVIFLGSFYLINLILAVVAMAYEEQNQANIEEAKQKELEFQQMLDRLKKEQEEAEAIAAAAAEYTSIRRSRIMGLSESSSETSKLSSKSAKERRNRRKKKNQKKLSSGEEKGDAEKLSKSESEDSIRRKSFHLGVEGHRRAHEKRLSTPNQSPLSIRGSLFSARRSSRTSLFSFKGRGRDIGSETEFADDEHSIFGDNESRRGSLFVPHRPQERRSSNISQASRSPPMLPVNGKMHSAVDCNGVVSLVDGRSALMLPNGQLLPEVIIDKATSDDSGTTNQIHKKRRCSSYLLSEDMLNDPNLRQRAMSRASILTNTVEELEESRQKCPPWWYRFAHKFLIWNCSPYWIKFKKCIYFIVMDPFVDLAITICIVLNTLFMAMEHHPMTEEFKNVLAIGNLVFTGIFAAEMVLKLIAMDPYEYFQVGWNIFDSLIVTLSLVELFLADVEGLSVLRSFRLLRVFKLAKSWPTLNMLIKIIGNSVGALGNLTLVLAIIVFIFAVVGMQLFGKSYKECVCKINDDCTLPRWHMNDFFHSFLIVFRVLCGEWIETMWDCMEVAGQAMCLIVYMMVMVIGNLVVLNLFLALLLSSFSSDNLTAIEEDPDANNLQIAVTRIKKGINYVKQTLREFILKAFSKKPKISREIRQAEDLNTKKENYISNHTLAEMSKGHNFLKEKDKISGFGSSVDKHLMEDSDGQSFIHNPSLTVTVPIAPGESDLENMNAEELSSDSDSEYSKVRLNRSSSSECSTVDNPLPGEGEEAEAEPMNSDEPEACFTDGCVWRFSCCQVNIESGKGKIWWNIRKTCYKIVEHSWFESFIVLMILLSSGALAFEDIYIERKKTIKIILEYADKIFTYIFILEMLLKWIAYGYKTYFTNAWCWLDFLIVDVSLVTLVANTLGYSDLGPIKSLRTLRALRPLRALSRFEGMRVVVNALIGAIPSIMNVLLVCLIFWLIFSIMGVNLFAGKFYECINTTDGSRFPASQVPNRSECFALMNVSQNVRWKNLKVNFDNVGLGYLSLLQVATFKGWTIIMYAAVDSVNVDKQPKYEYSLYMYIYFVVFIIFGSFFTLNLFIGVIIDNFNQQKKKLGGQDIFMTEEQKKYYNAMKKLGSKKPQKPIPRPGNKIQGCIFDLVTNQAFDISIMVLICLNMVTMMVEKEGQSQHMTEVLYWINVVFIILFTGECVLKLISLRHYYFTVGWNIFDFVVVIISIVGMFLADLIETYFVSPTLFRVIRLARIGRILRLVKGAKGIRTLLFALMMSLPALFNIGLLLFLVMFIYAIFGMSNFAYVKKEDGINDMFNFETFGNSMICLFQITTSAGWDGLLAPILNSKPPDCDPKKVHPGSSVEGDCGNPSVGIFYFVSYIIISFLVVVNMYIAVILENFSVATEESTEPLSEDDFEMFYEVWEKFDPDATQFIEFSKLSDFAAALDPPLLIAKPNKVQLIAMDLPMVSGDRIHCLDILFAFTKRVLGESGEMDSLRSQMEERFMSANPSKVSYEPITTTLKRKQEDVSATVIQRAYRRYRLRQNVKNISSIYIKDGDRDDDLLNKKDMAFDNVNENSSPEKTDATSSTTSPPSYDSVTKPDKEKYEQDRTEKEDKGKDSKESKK
Chain of human NaV1.4 (P35499 whole entry): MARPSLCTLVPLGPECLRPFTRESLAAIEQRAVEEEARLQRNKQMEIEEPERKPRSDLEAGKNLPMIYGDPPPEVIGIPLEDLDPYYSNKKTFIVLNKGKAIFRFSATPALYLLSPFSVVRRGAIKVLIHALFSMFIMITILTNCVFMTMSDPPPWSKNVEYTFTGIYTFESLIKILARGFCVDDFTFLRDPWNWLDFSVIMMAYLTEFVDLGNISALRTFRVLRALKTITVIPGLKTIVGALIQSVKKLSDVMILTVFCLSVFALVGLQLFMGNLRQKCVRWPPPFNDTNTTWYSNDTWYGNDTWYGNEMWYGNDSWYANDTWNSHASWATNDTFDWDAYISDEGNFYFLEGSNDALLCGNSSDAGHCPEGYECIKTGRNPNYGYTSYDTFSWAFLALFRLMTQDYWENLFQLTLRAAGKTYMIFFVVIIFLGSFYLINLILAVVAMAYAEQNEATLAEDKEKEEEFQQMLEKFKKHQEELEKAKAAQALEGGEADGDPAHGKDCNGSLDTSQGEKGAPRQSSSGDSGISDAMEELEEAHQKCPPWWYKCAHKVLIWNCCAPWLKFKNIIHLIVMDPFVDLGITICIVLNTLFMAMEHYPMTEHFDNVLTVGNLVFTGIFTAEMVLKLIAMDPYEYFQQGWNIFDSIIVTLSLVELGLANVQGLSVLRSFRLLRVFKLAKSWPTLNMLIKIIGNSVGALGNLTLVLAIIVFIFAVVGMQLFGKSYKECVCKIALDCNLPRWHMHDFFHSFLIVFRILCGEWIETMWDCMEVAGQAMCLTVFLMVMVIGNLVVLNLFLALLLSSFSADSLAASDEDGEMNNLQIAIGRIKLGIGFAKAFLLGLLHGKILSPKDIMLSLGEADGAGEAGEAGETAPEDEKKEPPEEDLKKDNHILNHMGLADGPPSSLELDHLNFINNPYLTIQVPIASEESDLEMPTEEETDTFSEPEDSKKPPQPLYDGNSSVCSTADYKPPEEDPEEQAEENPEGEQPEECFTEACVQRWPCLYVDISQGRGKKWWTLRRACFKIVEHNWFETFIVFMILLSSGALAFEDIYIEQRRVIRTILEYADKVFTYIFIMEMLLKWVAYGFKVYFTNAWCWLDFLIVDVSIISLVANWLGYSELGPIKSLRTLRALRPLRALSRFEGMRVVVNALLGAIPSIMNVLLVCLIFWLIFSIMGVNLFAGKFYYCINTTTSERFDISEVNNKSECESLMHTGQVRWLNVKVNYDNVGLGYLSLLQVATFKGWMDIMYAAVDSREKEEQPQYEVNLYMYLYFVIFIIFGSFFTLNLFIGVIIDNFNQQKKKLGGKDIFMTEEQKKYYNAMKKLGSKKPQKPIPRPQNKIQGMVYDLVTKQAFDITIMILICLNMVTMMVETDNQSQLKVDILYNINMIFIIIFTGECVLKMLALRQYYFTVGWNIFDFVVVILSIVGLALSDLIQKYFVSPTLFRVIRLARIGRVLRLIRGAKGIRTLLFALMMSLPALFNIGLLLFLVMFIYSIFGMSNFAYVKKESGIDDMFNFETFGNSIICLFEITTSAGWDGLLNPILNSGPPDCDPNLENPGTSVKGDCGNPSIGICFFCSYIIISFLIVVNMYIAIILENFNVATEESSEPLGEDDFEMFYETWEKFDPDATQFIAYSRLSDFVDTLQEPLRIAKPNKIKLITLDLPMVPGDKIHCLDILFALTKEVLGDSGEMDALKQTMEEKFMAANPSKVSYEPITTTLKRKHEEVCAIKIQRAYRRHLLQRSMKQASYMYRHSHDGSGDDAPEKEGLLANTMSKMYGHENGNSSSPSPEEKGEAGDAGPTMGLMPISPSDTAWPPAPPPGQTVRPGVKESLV

One may read the IC50 as the concentration that gives 50% inhibition. As to `C#CC[C@H](N)C(=O)N[C@@H](Cc1ccc(O)cc1)C(=O)N[C@H]1CSSC[C@@H]2NC(=O)[C@@H]3CSSC[C@@H](C(=O)N[C@@H](CCCNC(=N)N)C(=O)N[C@@H](CCCCN)C(=O)N[C@H](C(=O)N[C@H](C(N)=O)[C@@H](C)CC)[C@@H](C)CC)NC(=O)[C@H](Cc4c[nH]c5ccccc45)NC(=O)[C@H](CC(C)C)NC(=O)[C@H](CCCCN)NC(=O)[C@H](CSSC[C@H](NC(=O)[C@H]([C@@H](C)O)NC(=O)[C@H](Cc4c[nH]c5ccccc45)NC(=O)[C@H](CCCC)NC(=O)[C@H](Cc4c[nH]c5ccccc45)NC(=O)[C@H](CCCCN)NC(=O)[C@H](CCC(N)=O)NC1=O)C(=O)N[C@@H](CC(=O)O)C(=O)N[C@@H](CO)C(=O)N[C@@H](CCCCN)C(=O)N[C@@H](CCCNC(=N)N)C(=O)N[C@@H](C)C(=O)N3)NC(=O)[C@H](CCCNC(=N)N)NC(=O)[C@H](CC(C)C)NC(=O)CNC(=O)[C@H](CCC(=O)O)NC2=O` [Peptide 3, Pra-[Nle6]JzTx-V(1–29)], the IC50 at human NaV1.7 [1] was found to be 1.2 nM; against human NaV1.5, 1090 nM; against human NaV1.4 (PX platform, at least ten cells, two to three data points per concentration), 6.2 nM. Besides, the “selectivity for NaV1.7 over NaV1.4” value at human NaV1.4 (PX platform IC50 ratio) was 5 fold.
On to JzTx-V(1–29) [reference compound], for which the half-maximal inhibitory concentration (IC50) in data set [2] was 28 nM; in data set [4], 30 nM. Moreover, at human NaV1.7 [3], the hNaV1.7 current blocked is 83 ± 2% and 83 ± 6%. In addition, on human NaV1.7 [3], the “reversal of NaV1.7 block by high frequency strong depolarizations to +100 mV” value is “partially reversed”.
On to `COc1cc(-c2cc(F)cc(Cl)c2)c(F)cc1-n1c(=O)ccc2cc(S(=O)(=O)Nc3ccon3)ccc21` [AMG8379], for which the C-fiber inhibition in data set [5] is recorded as 60%.
